Test systems include K-562 leukemia; ACHN renal; COLO 205 colon; OVCAR-4 ovarian; M14 melanoma; SF-268 CNS; SNB-19 CNS; NCI-H460 lung; HCC-2998 colon; SF-539 CNS.
Common to all, as to assay: NCI anticancer screen, dose series, 48 h

Structures are written as SMILES. “And” between values parts separate entries of the source, which are not always exact repeats. Equal values may be shown once.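 Following 48 hours of exposure in 96-well plates, responses at five concentrations were used to interpolate endpoints linearly. At the GI50, growth is halved. TGI: total growth inhibition.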

With `Cc1ccc(NC(=O)c2cc3ccccc3c(N=Nc3cc(S(=O)(=O)O)ccc3O)c2O)c(C)c1`, the TGI is more than 100 µM in the assay on K-562 leukemia; 23 µM in the assay on ACHN renal; more than 100 µM in the assay on COLO 205 colon; more than 100 µM in the assay on OVCAR-4 ovarian; 37.4 µM in the assay with M14 melanoma; more than 100 µM in the assay with SF-268 CNS. Moreover, in the assay on SNB-19 CNS, the TGI was 71.3 µM.
Regarding `C=C1C(=O)O[C@H]2[C@H]1CC/C(C=Nc1c(N)cc(C(F)(F)F)cc1C(F)(F)F)=C\CC[C@@]1(C)O[C@@H]21`, the GI50 in the assay with K-562 leukemia is 1.24 µM; with ACHN renal, 1.26 µM; with COLO 205 colon, 1.35 µM; in the assay with NCI-H460 lung, 1.53 µM; in the assay on OVCAR-4 ovarian it was 1.52 µM; in the assay on M14 melanoma, 1.73 µM. Further, the results for the GI50 in the assay on HCC-2998 colon, in the assay on SF-268 CNS and in the assay on SNB-19 CNS were 1.69 µM, 1.55 µM and 1.93 µM, respectively. The TGI with K-562 leukemia stood at 9.53 µM; with ACHN renal, 2.68 µM; in the assay with COLO 205 colon, 3.04 µM; with NCI-H460 lung, 3.38 µM; with OVCAR-4 ovarian, 3.05 µM; in the assay with M14 melanoma it was 3.67 µM. The TGI in the assay on HCC-2998 colon came to 3.3 µM; in the assay with SF-268 CNS, 3.82 µM; with SNB-19 CNS it was 4.98 µM.
Turning to `O=c1[nH]c(=O)c2cc3cc(C4CC(O)C(CO)O4)ccc3cc2[nH]1` (stereo not given), the GI50 was more than 100 µM in the assay on K-562 leukemia; more than 100 µM with SF-539 CNS; more than 100 µM in the assay on COLO 205 colon; more than 100 µM with NCI-H460 lung; 58.7 µM with OVCAR-4 ovarian; more than 100 µM in the assay on M14 melanoma. Besides, the GI50 in the assay with HCC-2998 colon, in the assay on SF-268 CNS and in the assay with SNB-19 CNS was more than 100 µM throughout. For the same compound, the TGI in the assay with K-562 leukemia, in the assay on SF-539 CNS, in the assay with COLO 205 colon, in the assay on NCI-H460 lung, in the assay with OVCAR-4 ovarian and in the assay on M14 melanoma was more than 100 µM in each case. Besides, the TGI in the assay with HCC-2998 colon, with SF-268 CNS and with SNB-19 CNS was more than 100 µM in each case.
As for `CCOC(=O)c1cc(C(=O)c2cc(OC)c(OC)c(OC)c2)n2c1ccc1ccccc12`, the GI50 with K-562 leukemia is 0.0604 µM; with ACHN renal it was 0.997 µM; in the assay with SF-539 CNS it was 0.216 µM; with COLO 205 colon, 0.26 µM; with NCI-H460 lung, 0.313 µM; in the assay with M14 melanoma, 0.137 µM. Moreover, the values for the GI50 in the assay on HCC-2998 colon, with SF-268 CNS and in the assay with SNB-19 CNS were 0.514 µM, 1.94 µM and 0.636 µM, respectively. Also, the TGI in the assay on K-562 leukemia was more than 100 µM; with ACHN renal it was more than 100 µM; with SF-539 CNS, 0.723 µM; with COLO 205 colon, 1.94 µM; in the assay on NCI-H460 lung it was more than 100 µM; with M14 melanoma, more than 100 µM. Besides, the TGI with HCC-2998 colon, in the assay with SF-268 CNS and in the assay on SNB-19 CNS was more than 100 µM throughout.
Consider `COC(=O)c1ccccc1N1C(=O)Cc2ccccc2C1=O`, for which the TGI in the assay with K-562 leukemia, with ACHN renal, in the assay on SF-539 CNS, with COLO 205 colon, with HCC-2998 colon and with SF-268 CNS was more than 100 µM in each case. For the same compound, in the assay on SNB-19 CNS, the TGI was more than 100 µM.
As to `C#CCN(Cc1nc2cc(C(F)(F)F)ccc2nc1-c1ccccc1)c1ccc(C)cc1`, the GI50 is 33 µM in the assay on K-562 leukemia; 24.3 µM in the assay with SF-539 CNS; 2.79 µM in the assay with COLO 205 colon; 3.93 µM in the assay on NCI-H460 lung; more than 24.9 µM in the assay with OVCAR-4 ovarian; 5.4 µM with M14 melanoma. For the same compound, the GI50 was 17 µM with SF-268 CNS and 6.2 µM in the assay with SNB-19 CNS. Moreover, the TGI with K-562 leukemia was more than 100 µM; in the assay on ACHN renal, more than 33.5 µM; in the assay on SF-539 CNS it was more than 100 µM; with NCI-H460 lung it was more than 100 µM; in the assay on OVCAR-4 ovarian, more than 43.2 µM; with M14 melanoma, 32 µM. The TGI is more than 100 µM in the assay with SF-268 CNS and more than 36.1 µM with SNB-19 CNS.
Consider `O=C(NC(=O)c1ccccc1[N+](=O)[O-])Nc1ccc(Oc2ncc(Cl)cn2)c([N+](=O)[O-])c1`, for which the TGI is more than 100 µM with K-562 leukemia; more than 100 µM with ACHN renal; 8.38 µM with SF-539 CNS; 6.06 µM in the assay with COLO 205 colon; more than 100 µM in the assay with NCI-H460 lung; more than 100 µM with OVCAR-4 ovarian. Moreover, the TGI with M14 melanoma, with SF-268 CNS and in the assay on SNB-19 CNS was more than 100 µM in each case.
For the compound `COc1cc2c(c(OC)c1OC)-c1ccc(OC)c(=O)cc1[C@@H](NC(C)=O)CC2`, the TGI in the assay on ACHN renal is more than 100 µM; in the assay on OVCAR-4 ovarian, more than 100 µM; with M14 melanoma it was > 100 µM and 32 µM; with HCC-2998 colon, 1.01 µM and 7.43 µM. For the same compound, the GI50 with NCI-H460 lung is 0.625 µM.
Take `Nc1nc(Cl)cc(NCC(O)CO)n1` (stereo not given): the TGI with K-562 leukemia, in the assay on SF-539 CNS, in the assay with COLO 205 colon, in the assay on NCI-H460 lung, in the assay with OVCAR-4 ovarian and in the assay with M14 melanoma was more than 100 µM in each case. Moreover, the TGI in the assay on HCC-2998 colon, in the assay with SF-268 CNS and in the assay on SNB-19 CNS was more than 100 µM throughout.
With `N/C(=N/N=C/c1ccccc1)N/N=C\c1ccccc1`, the GI50 in the assay with K-562 leukemia was 3.35 µM; in the assay on ACHN renal it was 6.4 µM; with COLO 205 colon, 3.66 µM; with NCI-H460 lung, 3.89 µM; in the assay with OVCAR-4 ovarian, 19.6 µM; with M14 melanoma, 3.4 µM. The GI50 in the assay on HCC-2998 colon is 7.21 µM; with SF-268 CNS, 9.66 µM; with SNB-19 CNS it was more than 100 µM. For the same compound, the TGI in the assay on K-562 leukemia was more than 100 µM; with ACHN renal, more than 100 µM; with COLO 205 colon, 14.7 µM; in the assay with NCI-H460 lung, more than 100 µM; in the assay with OVCAR-4 ovarian, more than 100 µM; in the assay on M14 melanoma it was 29.8 µM. Further, the TGI in the assay with HCC-2998 colon was 37.8 µM; in the assay on SF-268 CNS, more than 100 µM; in the assay on SNB-19 CNS it was more than 100 µM.

The values above are taken from PubChem BioAssay (NCI).
